# Measured values from PubChem BioAssay (NCI).
#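 Exposure lasted 48 hours, with cells grown in 96-well plates and compounds tested at five concentrations. TGI: concentration producing complete growth inhibition.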
# Assays:
# Assay in all cases: inhibition of tumour cell growth, NCI panel, 48 h
# [1] = tested on: HS 578T breast
# [2] = tested on: NCI/ADR-RES ovarian
# [3] = tested on: SK-MEL-28 melanoma
# [4] = tested on: T-47D breast
# [5] = tested on: SF-539 CNS
# [6] = tested on: UACC-62 melanoma
# [7] = tested on: EKVX NSCLC
# [8] = tested on: MOLT-4 leukemia
# [9] = tested on: UACC-257 melanoma
# [10] = tested on: DU-145 prostate
# [11] = tested on: TK-10 renal
# [12] = tested on: OVCAR-4 ovarian
# [13] = tested on: HOP-62 NSCLC
# [14] = tested on: OVCAR-8 ovarian
# [15] = tested on: CCRF-CEM leukemia
# [16] = tested on: MALME-3M melanoma
# [17] = tested on: COLO 205 colon
# [18] = tested on: A549 NSCLC
# [19] = tested on: M14 melanoma
# [20] = tested on: K-562 leukemia
smiles,measurement,setting,value
COC(=O)C(=O)Nc1cc2c3c(c1)Oc1cccc4c1C3(C)c1c(cccc1O2)O4,TGI,[1],> 100 µM
same,TGI,[2],> 100 µM
same,TGI,[3],> 100 µM
same,TGI,[4],> 100 µM
same,TGI,[5],> 76.6 µM
same,TGI,[6],> 100 µM
same,TGI,[7],> 100 µM
same,TGI,[8],> 100 µM
same,TGI,[9],> 100 µM
same,TGI,[10],> 66.3 µM
same,TGI,[11],> 100 µM
same,TGI,[12],> 100 µM
same,TGI,[13],> 100 µM
same,TGI,[14],> 100 µM
same,TGI,[15],8.7 µM
same,TGI,[16],> 100 µM
same,TGI,[17],> 31.6 µM
same,TGI,[18],> 100 µM
same,TGI,[19],> 100 µM
same,TGI,[20],> 100 µM
CC(=O)Nc1cccc(N2C(=O)/C(=C\c3cccc(Oc4ccccc4)c3)SC2c2ccccc2)c1 (stereo not given),TGI,[1],> 100 µM
same,TGI,[2],> 100 µM
same,TGI,[3],> 100 µM
same,TGI,[4],> 100 µM
same,TGI,[5],> 100 µM
same,TGI,[6],> 100 µM
same,TGI,[7],> 100 µM
same,TGI,[8],> 100 µM
same,TGI,[9],> 100 µM
same,TGI,[10],> 100 µM
same,TGI,[11],> 100 µM
same,TGI,[12],> 100 µM
same,TGI,[13],> 100 µM
same,TGI,[14],> 100 µM
same,TGI,[15],51.6 µM
same,TGI,[16],> 100 µM
same,TGI,[17],> 100 µM
same,TGI,[18],> 100 µM
same,TGI,[19],> 100 µM
same,TGI,[20],> 100 µM
Cc1nn(C(=O)c2ccncc2)c2c1C(c1ccccc1[N+](=O)[O-])SC(N)=N2 (stereo not given),TGI,[1],> 10 µM
same,TGI,[2],> 10 µM
same,TGI,[3],> 10 µM
same,TGI,[4],> 10 µM
same,TGI,[5],> 10 µM
same,TGI,[6],> 10 µM
same,TGI,[7],> 10 µM
same,TGI,[8],> 10 µM
same,TGI,[9],> 10 µM
same,TGI,[10],> 10 µM
same,TGI,[11],> 10 µM
same,TGI,[12],> 10 µM
same,TGI,[13],> 10 µM
same,TGI,[14],> 10 µM
same,TGI,[15],> 10 µM
same,TGI,[16],> 10 µM
same,TGI,[17],> 10 µM
same,TGI,[18],> 10 µM
same,TGI,[19],> 10 µM
same,TGI,[20],> 10 µM
O=C1NCN(c2ccccc2)C12CCN(CC1COc3ccccc3O1)CC2 (stereo not given),TGI,[1],71.8 µM
same,TGI,[2],> 100 µM
same,TGI,[3],> 100 µM
same,TGI,[4],> 100 µM
same,TGI,[5],> 100 µM
same,TGI,[6],> 100 µM
same,TGI,[7],98.2 µM
same,TGI,[8],> 100 µM
same,TGI,[9],> 100 µM
same,TGI,[10],> 100 µM
same,TGI,[11],> 100 µM
same,TGI,[12],> 100 µM
same,TGI,[13],52.8 µM
same,TGI,[14],> 100 µM
same,TGI,[15],> 100 µM
same,TGI,[16],> 100 µM
same,TGI,[17],> 100 µM
same,TGI,[18],> 100 µM
same,TGI,[19],> 100 µM
same,TGI,[20],> 100 µM
